From US8673955B2, “Imidazole derivatives as fructose-1,6-bisphosphatase inhibitors and pharmaceutical compositions containing them” (Merck Patent GmbH, priority 2005, dated 2014)
Like-named read-outs stand apart in the source and are kept apart here.

How the values were obtained:
[1] = target: T1, human liver recombinant Fructose-1,6-bisphosphatase (Homo sapiens, UniProt P09467); assay: Inhibition of human liver recombinant fructose-1,6-bisphosphatase, coupled spectrophotometric enzyme assay; assay type: biochemical
T1 sequence (P09467 1-338): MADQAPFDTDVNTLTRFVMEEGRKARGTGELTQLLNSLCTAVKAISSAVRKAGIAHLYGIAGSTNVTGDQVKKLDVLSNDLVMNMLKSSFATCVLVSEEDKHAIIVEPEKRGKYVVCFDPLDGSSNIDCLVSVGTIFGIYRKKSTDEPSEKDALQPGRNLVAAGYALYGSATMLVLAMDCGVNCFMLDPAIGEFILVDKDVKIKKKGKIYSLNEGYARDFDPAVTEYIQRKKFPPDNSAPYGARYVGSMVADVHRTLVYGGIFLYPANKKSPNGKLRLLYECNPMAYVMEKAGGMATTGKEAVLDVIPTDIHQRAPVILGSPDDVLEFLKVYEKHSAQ
Description: Enzymatic activity was measured spectrophotometrically in reactions that coupled the formation of product (fructose 6-Phosphate) to the reduction of NADP+, using phosphoglucoisomerase (PGI) and glucose 6-phosphate dehydrogenase (G6PDH) as the coupling enzymes.
Reaction mixtures (250 μl) were made up in 96-well microtitre plates, and consisted of 20 mM triethanolamine, pH 7.5, 2 mM MgCl2, 0.1 mM EDTA, 40 mM ammonium sulfate, 0.5 mM NADP, 1 U/ml G6PDH, 1 U/ml PGI and 0.167 mM substrate (Fructose 1,6-bisphosphate). The inhibitors were prepared at 10^-2 M in DMSO 100% and tested at 10^-5 M (DMSO 0.1%).
Reactions were started by the addition of the human liver recombinant Fructose-1,6-bisphosphatase and were monitored for 30 minutes at 340 nm in a Tecan Plate Reader (Room temperature).

[2] = system: primary culture of rat hepatocytes; assay: Hepatic glucose production in primary culture of rat hepatocytes (DHA as gluconeogenic precursor); assay type: cell-based; conditions: 100 μM compound; 3 h incubation with DHA; control without compound = 100%
Description: Effects of the compounds previously described on hepatic glucose production in primary culture of rat hepatocytes.
Hepatocytes were isolated from normal Wistar rats in overnight fasted condition by collagenase perfusion as described by Seglen (Methods Cell Biol., (1975); 13, 29-83). Cell viability was assessed by the trypan blue exclusion test. The isolated hepatocytes were suspended in William's medium containing 10% fetal bovine serum in 6 well plates. After cell attachment (4 h) the medium was changed to remove cellular debris and replaced by serum-free minimum essential medium without glucose and the hepatocytes were cultured for 16-18 h (37° C.; 5%, CO2). At the end of the culture and after removing the medium, glucose production was assessed by incubating hepatocytes for 3 h in KREBS buffer supplemented with dihydroxyacetone (DHA) as a gluconeogenic precursor in the presence or not of the different compounds previously described. After the 3 h incubation time, the amount of glucose in the buffer was assayed by a glucose oxidase method (GOD). The total amount of cellular protein per well was measured by the method of Lowry. The results were expressed as nanomoles of glucose produced per mg cell protein. The activity of the tested compounds was expressed as % of control glucose production in presence of DHA and without compound (100%).

[3] = stated in method text, read-out: IC50 for reference inhibitors of Fructose-1,6-bisphosphatase
[4] = 0.167 mM fructose 1,6-bisphosphate, pH 7.5, room temperature, read-out: Inhibition of human F-1,6-Bpase IC50

Hepatic glucose production (rat hepatocytes) % of control at 100 μM [2] | IC50 [1, 4] [µM] | SMILES | IC50 [1, 3] [µM]
 |  | Nc1ncnc2c1ncn2[C@@H]1O[C@H](COP(=O)(O)O)[C@@H](O)[C@H]1O [AMP, reference compound] | ~10
10 % of control | 70.2 | O=C(O)c1ccc(Cn2cc(COCc3cccc(-c4ccccc4)c3)nc2-c2ccc(Cl)s2)cc1 [Example 20, 4-[4-(Biphenyl-3-ylmethoxymethyl)-2-(5-chlorothiophen-2-yl)imidazol-1-ylmethyl]benzoic acid] | 
44 % of control | 51.2 | Cc1nc(-c2ccc3ccc(COCc4cn(Cc5ccc(C(=O)O)cc5)c(-c5ccc(Cl)s5)n4)cc3c2)no1 [Example 26, 4-{2-(5-Chlorothiophen-2-yl)-4-[7-(5-methyl-[1,2,4]-oxadiazol-3-yl)naphthalen-2-ylmethoxymethyl]imidazol-1-ylmethyl}benzoic acid] | 
61 % of control | 88.3 | O=C(O)c1ccc(Cn2cc(COCc3ccc(Cl)cc3)nc2-c2ccc(Br)cc2)cc1 [Example 47, 4-[2-(4-Bromophenyl)-4-(4-chlorobenzyloxymethyl)imidazol-1-ylmethyl]benzoic acid] | 
 |  | O=P(O)(O)OC[C@H]1O[C@@](CO)(OP(=O)(O)O)[C@@H](O)[C@@H]1O [Fructose-2,6-Bisphosphate, reference compound] | ~35
